Results reported in ChEMBL document CHEMBL1201862, “PubChem BioAssay data set” (2004).
Several values for one entry are separate records, joined by “and”; a condition that tells them apart may be missing. Equal values may be shown once.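 Step 1: Grow cells in 96-well plates. Step 2: Expose to compound for 48 hours at 5 concentrations. Step 3: Interpolate endpoints linearly; if unreached, use highest concentration. Abbreviation: GI50, concentration required for 50% inhibition of growth.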 Activity calls are given as the source filed them. Cut-off read from the data, not from the text of the source: active = GI50 up to about 1.1 µM and inactive = higher.

How the values were obtained:
Experiment in all cases: NCI anticancer screen, dose series, 48 h
[1] = tested on: OVCAR-8
[2] = tested on: HCC 2998
[3] = tested on: HCT-15
[4] = tested on: HOP-62
[5] = tested on: EKVX
[6] = tested on: OVCAR-3
[7] = tested on: OVCAR-4
[8] = tested on: HT-29
[9] = tested on: UACC-257
[10] = tested on: MDA-MB-231
[11] = tested on: TK-10
[12] = tested on: CCRF-CEM
[13] = tested on: K562
[14] = tested on: SF-539
[15] = tested on: UO-31
[16] = tested on: CAKI-1
[17] = tested on: MDA-N
[18] = tested on: HCT-116
[19] = tested on: NCI-H522
[20] = tested on: ACHN
[21] = tested on: KM12
[22] = tested on: RPMI-8226
[23] = tested on: HL-60
[24] = tested on: SK-MEL-2
[25] = tested on: DU-145
[26] = tested on: 786-0
[27] = tested on: NCI-H23
[28] = tested on: SF-268
[29] = tested on: SF-295
[30] = tested on: PC-3
[31] = tested on: LOX IMVI
[32] = tested on: OVCAR-5
[33] = tested on: NCI-H460
[34] = tested on: SW-620
[35] = tested on: Hs-578T
[36] = tested on: SK-MEL-5
[37] = tested on: IGROV-1
[38] = tested on: NCI/ADR-RES
[39] = tested on: HOP-92
[40] = tested on: SK-OV-3
[41] = tested on: U-251
[42] = tested on: M14
[43] = tested on: T47D
[44] = tested on: NCI-H226
[45] = tested on: MDA-MB-435
[46] = tested on: MCF7
[47] = tested on: SK-MEL-28
[48] = tested on: RXF 393
[49] = tested on: A498
[50] = tested on: MOLT-4
[51] = tested on: Malme-3M
[52] = tested on: SNB-75
[53] = tested on: UACC-62
[54] = tested on: SNB-19
[55] = tested on: A549
[56] = tested on: COLO 205
[57] = tested on: SN12C
[58] = tested on: SR

COc1ccc(C2=NN(C(=O)c3ccc(Cl)cc3)C(O)(c3cc(F)c(Cl)cc3Cl)C2)cc1OC (stereo unspecified)
GI50 [1]: 58.1 µM (inactive) | GI50 [2]: 8.24 µM (inactive) | GI50 [3]: 8.28 µM | GI50 [4]: 99.8 µM (inactive) | GI50 [5]: 27.7 µM (inactive) | GI50 [6]: 41.8 µM (inactive) | GI50 [7]: 18 µM (inactive) | GI50 [8]: 4.29 µM (inactive) | GI50 [9]: 31.3 µM (inactive) | GI50 [10]: > 100 µM (inactive) | GI50 [11]: 86.7 µM (inactive) | GI50 [12]: 1.99 µM (inactive) | GI50 [13]: 5.82 µM (inactive) | GI50 [14]: > 100 µM (inactive) | GI50 [15]: 3.08 µM (inactive) | GI50 [16]: 18.6 µM (inactive) | GI50 [17]: 15.5 µM (inactive) | GI50 [18]: 6.14 µM (inactive) | GI50 [19]: 6.68 µM (inactive) | GI50 [20]: 14.9 µM (inactive) | GI50 [21]: 8.15 µM (inactive) | GI50 [22]: 6.03 µM (inactive) | GI50 [23]: 495 nM (active) | GI50 [24]: 78.7 µM (inactive) | GI50 [25]: 8.51 µM (inactive) | GI50 [26]: 17.8 µM (inactive) | GI50 [27]: 47.1 µM (inactive) | GI50 [28]: 21.2 µM (inactive) | GI50 [29]: 26 µM (inactive) | GI50 [30]: 6.44 µM (inactive) | GI50 [31]: 37.9 µM (inactive) | GI50 [32]: > 100 µM (inactive) | GI50 [33]: 9.14 µM (inactive) | GI50 [34]: 6.97 µM (inactive) | GI50 [35]: 24 µM (inactive) | GI50 [36]: 33.1 µM (inactive) | GI50 [37]: 35.1 µM (inactive) | GI50 [38]: 9.77 µM (inactive) | GI50 [39]: 13.2 µM (inactive) | GI50 [40]: > 100 µM (inactive) | GI50 [41]: 19.2 µM (inactive) | GI50 [42]: 12.5 µM (inactive) | GI50 [43]: 6.27 µM (inactive) | GI50 [44]: > 100 µM (inactive) | GI50 [45]: 13.2 µM (inactive) | GI50 [46]: 4.61 µM (inactive) | GI50 [47]: > 100 µM (inactive) | GI50 [48]: 6.17 µM (inactive) | GI50 [49]: 5.2 µM (inactive) | GI50 [50]: 4.13 µM (inactive)

Nc1nc(Cl)c(/N=N/c2ccc(Cl)cc2)c(NCC2(CO)CC(OCc3ccccc3)C2)n1 (stereo unspecified)
GI50 [13]: 4.98 µM (inactive) and 3.03 µM (inactive) | GI50 [15]: 2.92 µM (inactive) and 2.08 µM (inactive) | GI50 [16]: 3.31 µM (inactive) and 1.82 µM (inactive) | GI50 [51]: 1.62 µM (inactive) | GI50 [20]: 1.53 µM (inactive) and 1.73 µM (inactive) | GI50 [23]: 3.63 µM (inactive) and 3.48 µM (inactive) | GI50 [52]: 6.71 µM (inactive) | GI50 [43]: 3.67 µM (inactive) and 3.15 µM (inactive)

CN1C/C(=C\c2ccccc2[N+](=O)[O-])C(=O)/C(=C/c2ccccc2[N+](=O)[O-])C1
GI50 [2]: 1.01 µM (active) | GI50 [3]: 0.262 µM | GI50 [4]: 2.48 µM (inactive) | GI50 [53]: 0.771 µM (active) | GI50 [11]: 1.17 µM (inactive) | GI50 [15]: 0.303 µM (active) | GI50 [18]: 0.195 µM (active) | GI50 [21]: 1.99 µM (inactive) | GI50 [23]: 112 nM (active) | GI50 [54]: 4.26 µM (inactive) | GI50 [24]: 2.11 µM (inactive) | GI50 [25]: 2.2 µM (inactive) | GI50 [26]: 0.277 µM (active) | GI50 [55]: 3.55 µM (inactive) | GI50 [30]: 1.23 µM (inactive) | GI50 [52]: 2.21 µM (inactive) | GI50 [56]: 0.25 µM (active) | GI50 [33]: 1.79 µM (inactive) | GI50 [34]: 0.201 µM (active) | GI50 [36]: 0.902 µM (active) | GI50 [37]: 0.782 µM (active) | GI50 [38]: 1.03 µM (active) | GI50 [39]: 0.836 µM (active) | GI50 [40]: 3.02 µM (inactive) | GI50 [41]: 1.19 µM (inactive) | GI50 [44]: 5.05 µM (inactive) | GI50 [46]: 0.348 µM (active) | GI50 [49]: 2.17 µM (inactive) | GI50 [50]: 0.238 µM (active)

CC(C)(C)C(=O)C(CC(=O)c1ccccc1)C(=O)C(C)(C)C
GI50 [1]: > 100 µM (inactive) | GI50 [2]: > 100 µM (inactive) | GI50 [3]: > 100 µM | GI50 [4]: 99.1 µM (inactive) | GI50 [5]: > 100 µM (inactive) | GI50 [6]: > 100 µM (inactive) | GI50 [7]: > 100 µM (inactive) | GI50 [8]: > 100 µM (inactive) | GI50 [9]: > 100 µM (inactive) | GI50 [10]: > 100 µM (inactive) | GI50 [11]: > 100 µM (inactive) | GI50 [12]: > 100 µM (inactive) | GI50 [13]: > 100 µM (inactive) | GI50 [14]: > 100 µM (inactive) | GI50 [15]: > 100 µM (inactive) | GI50 [16]: > 100 µM (inactive) | GI50 [51]: > 100 µM (inactive) | GI50 [17]: > 100 µM (inactive) | GI50 [18]: > 100 µM (inactive) | GI50 [19]: > 100 µM (inactive) | GI50 [20]: > 100 µM (inactive) | GI50 [21]: > 100 µM (inactive) | GI50 [22]: > 100 µM (inactive) | GI50 [23]: > 100000 nM (inactive) | GI50 [54]: > 100 µM (inactive) | GI50 [24]: > 100 µM (inactive) | GI50 [25]: > 100 µM (inactive) | GI50 [26]: > 100 µM (inactive) | GI50 [27]: > 100 µM (inactive) | GI50 [55]: > 100 µM (inactive) | GI50 [28]: 83.9 µM (inactive) | GI50 [29]: > 100 µM (inactive) | GI50 [30]: > 100 µM (inactive) | GI50 [31]: > 100 µM (inactive) | GI50 [32]: > 100 µM (inactive) | GI50 [52]: 15.3 µM (inactive) | GI50 [56]: > 100 µM (inactive) | GI50 [33]: > 100 µM (inactive) | GI50 [34]: > 100 µM (inactive) | GI50 [35]: 77.3 µM (inactive) | GI50 [36]: > 100 µM (inactive) | GI50 [37]: > 100 µM (inactive) | GI50 [38]: > 100 µM (inactive) | GI50 [39]: 44.7 µM (inactive) | GI50 [40]: > 100 µM (inactive) | GI50 [41]: > 100 µM (inactive) | GI50 [57]: > 100 µM (inactive) | GI50 [42]: > 100 µM (inactive) | GI50 [43]: > 100 µM (inactive) | GI50 [44]: > 100 µM (inactive) | GI50 [45]: > 100 µM (inactive) | GI50 [46]: > 100 µM (inactive) | GI50 [47]: > 100 µM (inactive) | GI50 [49]: > 100 µM (inactive) | GI50 [50]: > 100 µM (inactive)

COc1cc(OC)c(OC)cc1/C=C\c1nccc2ccccc12
GI50 [1]: 23.2 µM (inactive) | GI50 [3]: > 10 µM | GI50 [58]: 20.9 µM (inactive) | GI50 [5]: 22.2 µM (inactive) | GI50 [7]: 29.1 µM (inactive) | GI50 [11]: 27.8 µM (inactive) | GI50 [12]: 76.2 µM (inactive) | GI50 [13]: 28.9 µM (inactive) | GI50 [15]: 16.8 µM (inactive) | GI50 [16]: 22.5 µM (inactive) | GI50 [51]: 33 µM (inactive) | GI50 [17]: > 10 µM (inactive) | GI50 [18]: 18.1 µM (inactive) | GI50 [21]: 15.1 µM (inactive) | GI50 [22]: 18.7 µM (inactive) | GI50 [23]: 18700 nM (inactive) | GI50 [54]: 18.5 µM (inactive) | GI50 [25]: 16.3 µM (inactive) | GI50 [27]: 23.4 µM (inactive) | GI50 [55]: 25.6 µM (inactive) | GI50 [28]: 23.3 µM (inactive) | GI50 [29]: 24 µM (inactive) | GI50 [30]: 27.8 µM (inactive) | GI50 [32]: 29.3 µM (inactive) | GI50 [52]: 23.9 µM (inactive) | GI50 [56]: 22.5 µM (inactive) | GI50 [34]: 26.9 µM (inactive) | GI50 [35]: 28.3 µM (inactive) | GI50 [36]: 15.2 µM (inactive) | GI50 [37]: 28.5 µM (inactive) | GI50 [38]: 31.2 µM (inactive) | GI50 [39]: 15.3 µM (inactive) | GI50 [40]: 32.8 µM (inactive) | GI50 [41]: 24.9 µM (inactive) | GI50 [42]: 16.7 µM (inactive) | GI50 [43]: 24.2 µM (inactive) | GI50 [47]: 29.3 µM (inactive) | GI50 [48]: 18.7 µM (inactive) | GI50 [50]: 16.1 µM (inactive)
